melting point	SMILES
72 to 73 °C	CCc1nn(-c2ccc(F)cc2)c2cc(Br)ccc12 [Example 24, 6-Bromo-3-ethyl-1-(4-fluorophenyl)-1H-indazole]
214 to 216 °C	CCc1nn(-c2ccc(F)cc2)c2cc(C3=CCC(C(=O)O)CC3)ccc12 (stereo not drawn) [Example 28, 4-(3-ethyl-1-(4-fluorophenyl)-1H-indazol-6-yl)-cyclohex-3-ene-carboxylic acid]
81 to 89 °C	CCc1nn(C2CCCC2)c2cc(C3(C#N)CCC(=O)CC3)ccc12 [Example 6, 1-(1-Cyclopentyl-3-ethyl-1H-indazol-6-yl)-4-oxo-cyclohexanecarbonitrile]

Reference: patent US6391872B1, “Indazole bioisostere replacement of catechol in therapeutically active compounds” (Pfizer Inc, priority 1997, dated 2002)
